This passage reports Kd results from ChEMBL document CHEMBL3991601, “The target landscape of clinical kinase drugs” (Science, 2017).

SMILES strings stand for the structures. Calls of active or inactive are those of the source. A value given as a limit tells only on which side of the number the result lay.

Test [1] concerns the target Fibroblast growth factor receptor 1 (Homo sapiens, UniProt P11362).
Test [2] deals with Tyrosine-protein kinase FRK (Homo sapiens, UniProt P42685).
For test [3], the target named is T1, Mitogen-activated protein kinase kinase kinase 6 (Homo sapiens, UniProt O95382).
T1 sequence (O95382 whole entry): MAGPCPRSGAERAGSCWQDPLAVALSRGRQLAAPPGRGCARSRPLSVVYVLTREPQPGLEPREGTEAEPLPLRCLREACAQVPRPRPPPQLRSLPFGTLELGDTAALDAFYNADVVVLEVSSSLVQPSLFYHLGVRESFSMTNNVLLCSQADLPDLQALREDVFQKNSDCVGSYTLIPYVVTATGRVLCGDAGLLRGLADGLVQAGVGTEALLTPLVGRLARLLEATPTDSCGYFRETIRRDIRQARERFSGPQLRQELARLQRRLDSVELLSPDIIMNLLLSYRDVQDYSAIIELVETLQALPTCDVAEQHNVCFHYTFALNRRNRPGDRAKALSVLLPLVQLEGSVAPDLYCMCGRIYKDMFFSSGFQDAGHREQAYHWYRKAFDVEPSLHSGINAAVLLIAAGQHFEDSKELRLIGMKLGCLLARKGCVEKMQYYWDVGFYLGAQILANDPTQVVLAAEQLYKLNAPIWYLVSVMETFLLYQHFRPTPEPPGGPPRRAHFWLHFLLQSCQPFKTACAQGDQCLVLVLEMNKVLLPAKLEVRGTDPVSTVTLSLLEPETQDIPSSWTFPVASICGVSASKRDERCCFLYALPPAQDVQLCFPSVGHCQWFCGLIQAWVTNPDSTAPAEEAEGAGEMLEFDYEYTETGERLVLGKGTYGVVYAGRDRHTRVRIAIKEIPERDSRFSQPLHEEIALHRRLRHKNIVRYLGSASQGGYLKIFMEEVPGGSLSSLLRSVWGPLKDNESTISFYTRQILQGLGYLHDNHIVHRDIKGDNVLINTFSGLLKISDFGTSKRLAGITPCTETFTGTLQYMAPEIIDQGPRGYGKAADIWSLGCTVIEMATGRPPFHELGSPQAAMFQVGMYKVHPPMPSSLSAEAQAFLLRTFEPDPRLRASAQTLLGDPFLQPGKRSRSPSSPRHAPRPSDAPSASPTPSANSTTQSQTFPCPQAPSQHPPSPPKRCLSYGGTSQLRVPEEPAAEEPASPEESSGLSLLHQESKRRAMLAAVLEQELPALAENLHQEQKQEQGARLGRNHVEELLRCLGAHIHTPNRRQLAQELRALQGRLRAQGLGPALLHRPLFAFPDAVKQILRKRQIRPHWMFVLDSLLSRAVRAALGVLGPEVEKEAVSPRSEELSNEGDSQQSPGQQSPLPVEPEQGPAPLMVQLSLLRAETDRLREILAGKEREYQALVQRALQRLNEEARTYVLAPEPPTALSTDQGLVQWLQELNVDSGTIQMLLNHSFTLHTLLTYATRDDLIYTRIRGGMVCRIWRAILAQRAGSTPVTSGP

The target of test [4] is Mitogen-activated protein kinase 11 (Homo sapiens, UniProt Q15759).
Test [5] has as its target T2, Pyridoxal kinase (Homo sapiens, UniProt O00764).
T2 sequence (O00764 whole entry): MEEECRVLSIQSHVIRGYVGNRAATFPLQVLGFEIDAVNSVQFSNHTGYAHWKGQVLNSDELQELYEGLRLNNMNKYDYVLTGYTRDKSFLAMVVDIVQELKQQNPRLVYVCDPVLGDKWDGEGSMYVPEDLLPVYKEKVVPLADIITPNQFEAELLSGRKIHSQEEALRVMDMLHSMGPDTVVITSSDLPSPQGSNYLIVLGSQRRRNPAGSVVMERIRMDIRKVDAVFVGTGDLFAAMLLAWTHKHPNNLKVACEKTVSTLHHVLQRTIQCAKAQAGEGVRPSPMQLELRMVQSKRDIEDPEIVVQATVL

Test [6] deals with T3, Phosphorylase b kinase gamma catalytic chain, liver/testis isoform (Homo sapiens, UniProt P15735).
T3 sequence (P15735 whole entry): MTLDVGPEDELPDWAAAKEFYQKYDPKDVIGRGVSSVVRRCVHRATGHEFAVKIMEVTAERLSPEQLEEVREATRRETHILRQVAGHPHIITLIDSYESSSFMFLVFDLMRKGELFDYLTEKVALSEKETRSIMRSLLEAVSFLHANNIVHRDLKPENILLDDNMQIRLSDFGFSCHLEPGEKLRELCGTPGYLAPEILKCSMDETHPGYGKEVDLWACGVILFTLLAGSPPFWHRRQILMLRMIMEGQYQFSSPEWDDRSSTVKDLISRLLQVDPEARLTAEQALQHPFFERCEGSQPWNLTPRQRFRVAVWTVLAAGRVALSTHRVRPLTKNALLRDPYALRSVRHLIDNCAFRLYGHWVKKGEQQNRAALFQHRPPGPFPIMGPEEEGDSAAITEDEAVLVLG

Test [7] addresses T4, Glycogen phosphorylase, brain form (Homo sapiens, UniProt P11216).
T4 sequence (P11216 whole entry): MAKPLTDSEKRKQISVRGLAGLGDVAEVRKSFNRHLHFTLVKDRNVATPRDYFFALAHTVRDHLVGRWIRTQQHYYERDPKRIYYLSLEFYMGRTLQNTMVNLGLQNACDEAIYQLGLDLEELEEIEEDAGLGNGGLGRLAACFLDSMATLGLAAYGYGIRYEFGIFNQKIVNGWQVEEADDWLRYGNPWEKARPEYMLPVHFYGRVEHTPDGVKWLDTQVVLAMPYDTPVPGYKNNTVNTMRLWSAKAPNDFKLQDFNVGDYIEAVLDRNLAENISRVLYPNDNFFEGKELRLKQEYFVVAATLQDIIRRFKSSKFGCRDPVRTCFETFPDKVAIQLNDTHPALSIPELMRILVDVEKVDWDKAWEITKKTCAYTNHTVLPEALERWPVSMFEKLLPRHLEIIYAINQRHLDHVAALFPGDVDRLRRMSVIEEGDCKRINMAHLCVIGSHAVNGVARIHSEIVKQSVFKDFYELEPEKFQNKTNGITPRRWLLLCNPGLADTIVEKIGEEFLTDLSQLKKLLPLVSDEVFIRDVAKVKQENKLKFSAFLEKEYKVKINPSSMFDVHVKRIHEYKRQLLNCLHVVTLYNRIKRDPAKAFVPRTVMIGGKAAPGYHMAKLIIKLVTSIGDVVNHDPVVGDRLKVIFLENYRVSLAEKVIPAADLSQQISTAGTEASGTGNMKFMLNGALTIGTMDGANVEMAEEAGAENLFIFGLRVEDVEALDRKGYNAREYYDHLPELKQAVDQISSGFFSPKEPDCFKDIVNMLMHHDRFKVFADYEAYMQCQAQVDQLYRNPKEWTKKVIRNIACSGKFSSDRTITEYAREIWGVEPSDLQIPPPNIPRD
Also: in the data inactive means no Kd found up to 30 µM.

Mitogen-activated protein kinase 11, sequence (Q15759 whole entry): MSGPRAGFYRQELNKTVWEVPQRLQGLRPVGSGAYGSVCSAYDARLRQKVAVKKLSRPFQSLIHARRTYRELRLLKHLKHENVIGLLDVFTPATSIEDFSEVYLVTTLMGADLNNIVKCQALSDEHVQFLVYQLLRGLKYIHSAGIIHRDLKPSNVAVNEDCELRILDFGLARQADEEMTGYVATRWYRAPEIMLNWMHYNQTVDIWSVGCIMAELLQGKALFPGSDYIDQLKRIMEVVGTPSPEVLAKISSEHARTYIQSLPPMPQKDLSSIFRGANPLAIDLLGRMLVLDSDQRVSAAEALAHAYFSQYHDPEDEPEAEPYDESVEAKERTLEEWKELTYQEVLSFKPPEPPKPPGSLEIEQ
Tyrosine-protein kinase FRK, sequence (P42685 whole entry): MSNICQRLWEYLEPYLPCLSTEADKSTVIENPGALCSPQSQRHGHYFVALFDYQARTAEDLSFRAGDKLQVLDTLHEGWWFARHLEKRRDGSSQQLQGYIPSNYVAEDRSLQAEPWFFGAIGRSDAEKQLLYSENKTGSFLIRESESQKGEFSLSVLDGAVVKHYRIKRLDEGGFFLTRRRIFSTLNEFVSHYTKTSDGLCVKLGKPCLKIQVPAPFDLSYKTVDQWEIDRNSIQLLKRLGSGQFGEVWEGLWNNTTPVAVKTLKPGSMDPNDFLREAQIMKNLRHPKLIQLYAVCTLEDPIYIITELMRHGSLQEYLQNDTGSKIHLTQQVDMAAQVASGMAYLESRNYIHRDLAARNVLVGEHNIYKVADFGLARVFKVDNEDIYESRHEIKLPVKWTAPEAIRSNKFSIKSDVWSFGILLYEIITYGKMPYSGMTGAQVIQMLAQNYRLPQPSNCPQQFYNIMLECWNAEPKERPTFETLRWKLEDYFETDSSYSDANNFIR
Fibroblast growth factor receptor 1, sequence (P11362 whole entry): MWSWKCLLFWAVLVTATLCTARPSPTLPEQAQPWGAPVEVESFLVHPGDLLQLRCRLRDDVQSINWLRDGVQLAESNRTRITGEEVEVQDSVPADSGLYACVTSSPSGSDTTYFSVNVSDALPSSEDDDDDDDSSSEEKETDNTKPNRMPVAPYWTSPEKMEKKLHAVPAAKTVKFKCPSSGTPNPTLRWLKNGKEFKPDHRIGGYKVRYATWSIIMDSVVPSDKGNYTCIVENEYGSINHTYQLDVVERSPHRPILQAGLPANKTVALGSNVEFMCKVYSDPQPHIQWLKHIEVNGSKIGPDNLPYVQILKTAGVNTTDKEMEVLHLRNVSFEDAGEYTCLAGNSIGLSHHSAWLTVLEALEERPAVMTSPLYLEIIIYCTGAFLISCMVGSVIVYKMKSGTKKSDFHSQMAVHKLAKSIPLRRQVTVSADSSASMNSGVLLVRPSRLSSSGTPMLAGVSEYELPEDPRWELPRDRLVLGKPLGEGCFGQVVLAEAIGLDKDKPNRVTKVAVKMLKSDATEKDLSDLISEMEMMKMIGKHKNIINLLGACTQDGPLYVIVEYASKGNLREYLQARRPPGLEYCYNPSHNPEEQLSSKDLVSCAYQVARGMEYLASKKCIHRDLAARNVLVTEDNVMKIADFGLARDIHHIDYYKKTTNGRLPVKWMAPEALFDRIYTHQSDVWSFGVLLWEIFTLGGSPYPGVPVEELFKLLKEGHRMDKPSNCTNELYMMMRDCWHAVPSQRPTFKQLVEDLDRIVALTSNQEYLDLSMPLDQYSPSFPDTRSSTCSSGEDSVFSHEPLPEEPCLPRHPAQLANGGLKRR

In the case of `CN(C[C@@H]1COCCO1)S(=O)(=O)Nc1ccc2ccc3ncc(-c4cnn(C)c4)cc3c(=O)c2c1` [MK-2461], the Kd in test [1], in test [2], in test [3], in test [4], in test [5] and in test [6] was > 30 µM (inactive) in each case. The Kd in test [7] is > 30 µM (inactive).
With `Cn1cc(-c2cnc3ccc4ccc(CS(=O)(=O)NCc5ccccn5)cc4c(=O)c3c2)cn1` [MK-8033], the Kd in test [1], in test [2], in test [3], in test [4], in test [5] and in test [6] was > 30 µM (inactive) each time. The Kd in test [7] was > 30 µM (inactive).
For the compound `FC(F)(F)c1ccc(/C=C/c2nc(COc3ccc(CCCCn4ccnn4)cc3)co2)cc1` [MUBRITINIB], the Kd in test [1], in test [2], in test [3], in test [4], in test [5] and in test [6] was > 30 µM (inactive) throughout. Besides, the Kd in test [7] was > 30 µM (inactive).
Regarding `COc1ncc(-c2ccc3nccc(-c4ccnnc4)c3c2)cc1NS(=O)(=O)c1ccc(F)cc1F` [OMIPALISIB], the Kd in test [1], in test [2], in test [3], in test [4], in test [5] and in test [6] was > 30 µM (inactive) each time. Further, in test [7], the Kd was > 30 µM (inactive).
On to `CCOc1cc2ncc(C#N)c(Nc3ccc(F)c(Cl)c3)c2cc1NC(=O)/C=C/CN(C)C` [PELITINIB], for which the Kd in test [1], in test [2], in test [3], in test [4], in test [5] and in test [6] was > 30 µM (inactive) throughout. Further, in test [7], the Kd is > 30 µM (inactive).
Take `CCCCCCCCCCCCCCCCCCOP(=O)([O-])OC1CC[N+](C)(C)CC1` [PERIFOSINE]: the Kd in test [1], in test [2], in test [3], in test [4], in test [5] and in test [6] was > 30 µM (inactive) throughout. Besides, in test [7], the Kd was > 30 µM (inactive).
Take `Cc1nc(Nc2n[nH]c3c2CN(C(=O)N[C@H](CN(C)C)c2ccccc2)C3(C)C)c2sccc2n1` [PF-03758309]: the Kd in test [1] is 0.208 µM (active); in test [2], > 30 µM (inactive); in test [3], > 30 µM (inactive); in test [4], > 30 µM (inactive); in test [5], > 30 µM (inactive); in test [6], 0.053 µM (active). The Kd in test [7] was > 30 µM (inactive).
As to `Cc1cnc(NC(=O)Nc2cc(Br)c(C)cc2OC[C@@H]2CNCCO2)cn1` [RABUSERTIB], the Kd in test [1], in test [2], in test [3], in test [4], in test [5] and in test [6] was > 30 µM (inactive) in each case. Also, the Kd in test [7] was > 30 µM (inactive).
For `CO[C@H]1C[C@@H]2CC[C@@H](C)[C@@](O)(O2)C(=O)C(=O)N2CCCC[C@H]2C(=O)O[C@H]([C@H](C)C[C@@H]2CC[C@@H](OP(C)(C)=O)[C@H](OC)C2)CC(=O)[C@H](C)/C=C(\C)[C@@H](O)[C@@H](OC)C(=O)[C@H](C)C[C@H](C)/C=C/C=C/C=C/1C` [RIDAFOROLIMUS], the Kd in test [1], in test [2], in test [3], in test [4], in test [5] and in test [6] was > 30 µM (inactive) in each case. Moreover, the Kd in test [7] is > 30 µM (inactive).
On to `N#CC1(c2ccc(NC(=O)c3cccnc3NCc3ccncc3)cc2)CCCC1` [RIVOCERANIB], for which the Kd in test [1], in test [2], in test [3], in test [4], in test [5] and in test [6] was > 30 µM (inactive) throughout. In addition, the Kd in test [7] was > 30 µM (inactive).
For `O=c1[nH]ccc2cc(OC3CCNCC3)ccc12` [SAR-407899 FREE BASE], the Kd in test [1], in test [2], in test [3], in test [4], in test [5] and in test [6] was > 30 µM (inactive) in each case. The Kd in test [7] is > 30 µM (inactive).
On to `CN1CCN(CCOc2cc(OC3CCOCC3)c3c(Nc4c(Cl)ccc5c4OCO5)ncnc3c2)CC1` [SARACATINIB], for which the Kd in test [1] is > 30 µM (inactive); in test [2], 2.33 µM (active); in test [3] it was > 30 µM (inactive); in test [4] it was > 30 µM (inactive); in test [5], > 30 µM (inactive); in test [6], > 30 µM (inactive). Besides, the Kd in test [7] was > 30 µM (inactive).
Turning to `Cn1cc(-c2cnn3c(N)c(Br)c([C@@H]4CCCNC4)nc23)cn1` [SCH-900776], the Kd in test [1], in test [2], in test [3], in test [4], in test [5] and in test [6] was > 30 µM (inactive) throughout. Further, in test [7], the Kd was > 30 µM (inactive).

The Kd is the free concentration of one partner at which half of the binding sites on the other are occupied at equilibrium, for simple one-to-one binding.
